SMILES strings stand for the structures. Structures can show the parent of a compound that is named as a salt.

For this experiment, the system named is HCT116. Conditions: 72 h. In short, it runs like this:
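HCT116 cells were seeded at 250 per well in 1536-well plates with 5 h allowed for attachment. CellTiter-Glo luminescence was normalized against vehicle (0%) and positive control (-100%) before pattern correction. The IC50 and maximal efficacy figures derive from four-parameter Hill fits.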

Consider `CCC(=O)NS(=O)(=O)c1ccc(-c2c(-c3ccccc3)noc2C)cc1` [Parecoxib], for which the IC50 cell viability is greater than 45.8 µM (ICRF193 0 nM) and greater than 45.8 µM (ICRF193 200 nM).

Regarding `CCOc1ccc(C(=O)OCCN(CC)CC)cc1` [Parethoxycaine], the IC50 cell viability reads like this: (ICRF193 0 nM) greater than 45.8 µM; (ICRF193 200 nM) greater than 45.8 µM.

For the compound `C#CCN(C)Cc1ccccc1` [Pargyline hydrochloride], the IC50 cell viability reads like this: (ICRF193 0 nM) greater than 45.8 µM; (ICRF193 200 nM) greater than 45.8 µM.

As for `C[C@H](/C=C/[C@H](C)C(C)(C)O)[C@H]1CC[C@H]2/C(=C/C=C3C[C@@H](O)C[C@H](O)C3)CCC[C@]12C` [Paricalcitol-D6], the IC50 cell viability was greater than 45.8 µM (ICRF193 0 nM) and greater than 45.8 µM (ICRF193 200 nM).

Compound `Fc1ccc([C@@H]2CCNC[C@H]2COc2ccc3c(c2)OCO3)cc1` [Paroxetine] gave an IC50 cell viability (ICRF193 0 nM) greater than 45.8 µM and an IC50 cell viability (ICRF193 200 nM) greater than 45.8 µM.

With `CCC(=O)c1ccc(O)cc1` [Paroxypropione], the IC50 cell viability is, setting by setting: (ICRF193 0 nM) greater than 45.8 µM; (ICRF193 200 nM) greater than 45.8 µM.

`NCCCC[C@@H]1NC(=O)[C@@H](Cc2c[nH]c3ccccc23)NC(=O)[C@H](c2ccccc2)NC(=O)[C@@H]2C[C@@H](OC(=O)NCCN)CN2C(=O)[C@H](Cc2ccccc2)NC(=O)[C@H](Cc2ccc(OCc3ccccc3)cc2)NC1=O` [Pasireotide (ditrifluoroacetate)] had an IC50 cell viability (ICRF193 0 nM) greater than 45.8 µM and an IC50 cell viability (ICRF193 200 nM) greater than 45.8 µM.

Turning to `C[C@H]1COc2c(C3(N)CC3)c(F)cc3c(=O)c(C(=O)O)cn1c23` [Pazufloxacin], the IC50 cell viability is greater than 45.8 µM (ICRF193 0 nM) and greater than 45.8 µM (ICRF193 200 nM).

With `CC(C(=O)O)c1ccc(/C=C2\CCCCC2=O)cc1` (stereo not drawn) [Pelubiprofen], the IC50 cell viability (ICRF193 0 nM) is greater than 45.8 µM and the IC50 cell viability (ICRF193 200 nM) is greater than 45.8 µM.

For `Nc1nc2[nH]cc(CCc3ccc(C(=O)N[C@@H](CCC(=O)O)C(=O)O)cc3)c2c(=O)[nH]1` [Pemetrexed disodium heptahydrate], the IC50 cell viability was greater than 45.8 µM (ICRF193 0 nM) and greater than 45.8 µM (ICRF193 200 nM).

Turning to `Cc1cccn2c(=O)c(-c3nnn[nH]3)cnc12` [Pemirolast potassium], the IC50 cell viability (ICRF193 0 nM) is greater than 45.8 µM and the IC50 cell viability (ICRF193 200 nM) is greater than 45.8 µM.

With `Nc1nc(O)c2ncn(CCC(CO)CO)c2n1` [Penciclovir], the IC50 cell viability is greater than 45.8 µM (ICRF193 0 nM) and greater than 45.8 µM (ICRF193 200 nM).

Turning to `CCCCCC1Nc2cc(C(F)(F)F)c(S(N)(=O)=O)cc2S(=O)(=O)N1` (stereo not drawn) [Penflutizide], the IC50 cell viability is, setting by setting: (ICRF193 0 nM) greater than 45.8 µM; (ICRF193 200 nM) greater than 45.8 µM.

As for `CC1(C)S[C@@H]2[C@H](NC(=O)Cc3ccccc3)C(=O)N2[C@H]1C(=O)O` [Penicillin G Sodium], the IC50 cell viability is, setting by setting: (ICRF193 0 nM) greater than 45.8 µM; (ICRF193 200 nM) greater than 45.8 µM.

`CCCCC[C@@H](O)[C@H]1C(=O)O[C@H](C)[C@@H](O)/C=C/C=C/C=C/C=C/C=C(\C)[C@@H](O)[C@H](O)[C@H](O)C[C@H](O)C[C@H](O)C[C@H](O)C[C@H](O)C[C@@H]1O` [Pentamycin] had an IC50 cell viability (ICRF193 0 nM) greater than 45.8 µM and an IC50 cell viability (ICRF193 200 nM) greater than 45.8 µM.

As to `O=C(O)CN(CCN(CC(=O)O)CC(=O)O)CCN(CC(=O)O)CC(=O)O` [Pentetic acid], the IC50 cell viability runs as follows: (ICRF193 0 nM) greater than 45.8 µM; (ICRF193 200 nM) greater than 45.8 µM.

Consider `CN[C@@H]1[C@@H](O)[C@@H](O[C@@H]2[C@H](O)[C@H](O[C@H]3OC(CN)=CC[C@H]3N)[C@@H](N)C[C@H]2N)OC[C@]1(C)O` [Pentisomicin], for which the IC50 cell viability runs as follows: (ICRF193 0 nM) greater than 45.8 µM; (ICRF193 200 nM) greater than 45.8 µM.

With `C[N+]1(CCCCC[N+]2(C)CCCC2)CCCC1` [Pentolinium bitartrate], the IC50 cell viability is, setting by setting: (ICRF193 0 nM) greater than 45.8 µM; (ICRF193 200 nM) greater than 45.8 µM.

Take `OC[C@H]1O[C@@H](n2cnc3c2N=CNC[C@H]3O)C[C@@H]1O` [Pentostatin]: the IC50 cell viability (ICRF193 0 nM) was greater than 45.8 µM and the IC50 cell viability (ICRF193 200 nM) is greater than 45.8 µM.

Take `CC(=O)CCCCn1c(=O)c2c(ncn2C)n(C)c1=O` [Pentoxifylline]: the IC50 cell viability by setting is: (ICRF193 0 nM) greater than 45.8 µM; (ICRF193 200 nM) greater than 45.8 µM.

For `Cc1c(N)nc([C@H](CC(N)=O)NC[C@H](N)C(N)=O)nc1C(=O)N[C@H](C(=O)N[C@H](C)[C@@H](O)[C@H](C)C(=O)N[C@H](C(=O)NCCc1nc(-c2nc(C(=O)NCCCN[C@@H](C)c3ccccc3)cs2)cs1)[C@@H](C)O)[C@@H](O[C@@H]1O[C@@H](CO)[C@@H](O)[C@H](O)[C@@H]1O[C@H]1O[C@H](CO)[C@@H](O)[C@H](OC(N)=O)[C@@H]1O)c1c[nH]cn1` [Peplomycin sulfate], the IC50 cell viability was greater than 45.8 µM (ICRF193 0 nM) and greater than 45.8 µM (ICRF193 200 nM).

`CCC(CC)[C@H](NC(C)=O)[C@@H]1[C@H](O)[C@@H](C(=O)O)C[C@H]1NC(=N)N` [Peramivir]: the IC50 cell viability reads like this: (ICRF193 0 nM) greater than 45.8 µM; (ICRF193 200 nM) greater than 45.8 µM.

As to `FC(F)(F)C(F)(F)C(F)(F)C(F)(F)C(F)(F)F` [Perflenapent], the IC50 cell viability is, setting by setting: (ICRF193 0 nM) greater than 45.8 µM; (ICRF193 200 nM) greater than 45.8 µM.

For `FC(F)(F)C(F)(F)C(F)(F)C(F)(F)C(F)(F)C(F)(F)F` [Perflexane], the IC50 cell viability by setting is: (ICRF193 0 nM) greater than 45.8 µM; (ICRF193 200 nM) greater than 45.8 µM.

(Values after the supplement of paper PMC12137928.)
